Measured values from patent publication US5045566A, “Novel imidate insecticides” (ICI Americas Inc., priority 1989, dated 1991).

Tests used:
Type in all cases: in vivo
[1] = tested on: Housefly [Musca domestica]; experiment: Housefly contact mortality in dishes (HF), 48 hours; conditions: μg of test compound per 25 female flies
Protocol: (§1) The compounds in Tables 1 and 2 above were tested for insecticidal activity using the following testing procedures. LC50 values, based on the results of these tests and calculated according to dosage-mortality curves, are expressed in Table 3.
Housefly [Musca domestica]:
Test compounds were diluted in acetone and aliquots pipetted onto the bottom of aluminum dishes. To ensure even spreading of the chemical on the bottom of the dishes, 1 ml of acetone containing 0.01% peanut oil was also added to each dish. After all solvents had evaporated, the dishes were placed in circular cardboard cages containing 25 female houseflies, 1-2 days old. The cages were covered on the bottom with cellophane and on the top with tulle netting, and each contained a sugar-water saturated cotton plug for maintenance of the flies. Mortality was recorded after 48 hours. Test levels ranged from 100 μg/25 female houseflies downward. The LC-50 value is expressed below in Table 3 under the heading "HF", in terms of μg of the test compound per 25 female flies.

[2] = tested on: Tobacco Budworm [Heliothis virescens (Fabricius)] eggs; experiment: Tobacco budworm eggs (TBW-E); conditions: percent in solution; 2-day old eggs
Protocol: as §1
Tobacco Budworm [Heliothis virescens (Fabricius)]:
(b). Eggs: Paper towel patches of 2-day old eggs of the tobacco budworm were dipped in acetone solutions of the test compound and placed in petri dishes containing a portion of larval rearing medium. Treated eggs were maintained at 78° F. and mortality was recorded after all control eggs had hatched and the young larvae were feeding on the media. Test concentrations ranged from 0.1% downward. The LC-50 value is expressed below in Table 3 under the heading "TBW-E" in terms of percent of the test compound in the solution.

[3] = tested on: Cabbage Looper [Trichoplusia ni (Hubner)]; experiment: Cabbage looper leaf dip (CL), 3-5 days; conditions: percent in solution, second-instar larvae
Protocol: as §1
Cabbage Looper [Trichoplusia ni (Hubner)]:
Test compounds were diluted in a 50-50 acetone-water solution. Cotyledons of hyzini squash (Calabacita abobrinha), approximately 1×1.5 inches, were immersed in the test solutions for 2-3 seconds and placed on a wire screen to dry. The dried leaves were placed in petri dishes containing a moistened piece of filter paper and infested with 5 second-instar cabbage looper larvae. The dishes were placed in a high humidity chamber. Mortality of the larvae was recorded 3-5 days later. Test concentrations ranged from 0.1% downward. The LC-50 value is expressed below in Table 3 under the heading "CL" in terms of percent of the test compound in solution.

[4] = tested on: Black Bean Aphid [Aphis fabae (Scop.)]; experiment: Black bean aphid spray test on nasturtium (BBA), 48 hours; conditions: percent of test compound in sprayed solution
Protocol: as §1
Black Bean Aphid [Aphis fabae (Scop.)]:
Nasturtium plants (Tropaeolum sp.) approximately 5 cm tall, were transplanted into sandy loam soil in small cups and infested with 25-50 black bean aphids of mixed ages. Twenty-four hours later they were sprayed to the point of runoff with 50-50 acetone-water solutions of the test compounds. Treated plants were held in the greenhouse and mortality was recorded after 48 hours. Test concentrations ranged from 0.05% downward. The LC-50 value is expressed below in Table 3 under the heading "BBA" in terms of percent of the test compound in the sprayed solution.

Row | SMILES | LC50 HF [1] [µg] | LC50 TBW E (eggs) [2] [%] | LC50 CL [3] [%] | LC50 BBA [4] [%]
1 | CC(C)(C)C(=Nc1cccc(Cl)c1)OCc1cccc(Oc2ccccc2)c1 [Compound 12] | > 100 | > 0.1 | 0.008 | > 0.05
2 | CC1CC1C(=Nc1ccc(Cl)cc1)OCc1cccc(Oc2ccccc2)c1 (stereo not drawn) [Compound 15] | > 100 | > 0.1 | 0.025 | > 0.05
3 | CC(C)C(=Nc1cc(Cl)c(Cl)cc1Cl)OCc1cccc(Oc2ccccc2)c1 [Compound 18] | > 100 | 0.09 | 0.008 | 0.003
4 | CC(C)C(=Nc1c(Cl)cc(Cl)cc1Cl)OCc1cccc(Oc2ccccc2)c1 [Compound 19] | > 100 | > 0.1 | < 0.1 | 0.05
5 | COC(C)C(=Nc1ccc(Cl)cc1)OCc1cccc(Oc2ccccc2)c1 (stereo not drawn) [Compound 22] | 15 | 0.08 | 0.004 | 0.01
6 | Clc1cccc(N=C(OCc2cccc(Oc3ccccc3)c2)C2CC2)c1 [Compound 24] | 25 | 0.1 | 0.005 | 0.01
7 | CC(C)(C)C(=Nc1ccc(F)cc1)OCc1cccc(Oc2ccccc2)c1 [Compound 48] | > 100 | > 0.05 | 0.03 | > 0.05
8 | CC(C)C(=Nc1cc(F)ccc1F)OCc1cccc(Oc2ccccc2)c1 [Compound 56] | 91 | > 0.05 | 0.01 | 0.03
9 | CC(C)C(=Nc1cc(F)c(F)cc1F)OCc1cccc(Oc2ccccc2)c1 [Compound 58] | 16 | 0.06 | 0.002 | 0.003
10 | COc1cc(N=C(OCc2cccc(Oc3ccccc3)c2)C(C)C)cc(C(F)(F)F)c1 [Compound 76] | 20 | 0.05 | 0.002 | 0.003
11 | CC(C)C(=Nc1cc(C(F)(F)F)cc(C(F)(F)F)c1)OCc1cccc(Oc2ccccc2)c1 [Compound 78] | > 100 | > 0.1 | 0.0025 | 0.03
12 | CC(C)C(=Nc1ccc(Br)cc1F)OCc1cccc(Oc2ccccc2)c1 [Compound 79] | 6 | 0.05 | 0.003 | 0.03
13 | CC(C)C(=Nc1cc(C(F)(F)F)ccc1F)OCc1cccc(Oc2ccccc2)c1 [Compound 84] | 93 | 0.1 | 0.006 | 0.03
14 | FC(F)(F)c1cccc(N=C(OCc2cccc(Oc3ccccc3)c2)C2CC2)c1 [Compound 86] | 65 | – | 0.013 | < 0.05
15 | Cc1cc(N=C(OCc2cccc(Oc3ccccc3)c2)C(C)C)ccc1F [Compound 87] | 5 | 0.03 | 0.004 | 0.001
16 | Cc1ccc(Cl)c(N=C(OCc2cccc(Oc3ccccc3)c2)C(C)C)c1 [Compound 93] | 64 | > 0.1 | 0.005 | 0.003
17 | Cc1ccc(N=C(OCc2cccc(Oc3ccccc3)c2)C(C)C)c(Cl)c1 [Compound 94] | 44 | 0.075 | 0.0045 | 0.001
18 | COc1cc(N=C(OCc2cccc(Oc3ccccc3)c2)C(C)C)c(OC)cc1Cl [Compound 99] | > 100 | > 0.1 | 0.016 | > 0.05
19 | COc1ccc(OC)c(N=C(OCc2cccc(Oc3ccccc3)c2)C(C)C)c1Cl [Compound 100] | 100 | > 0.1 | 0.05 | > 0.05

Row | SMILES | LC50 HF [1] [µg] | LC50 TBW E (eggs) [2] [%] | LC50 CL [3] [%] | LC50 BBA [4] [%]
20 | CCSc1ccc(N=C(OCc2cccc(Oc3ccccc3)c2)C(C)C)cc1Cl [Compound 103] | > 100 | > 0.1 | 0.015 | 0.001
21 | CCOC(=O)c1ccc(N=C(OCc2cccc(Oc3ccccc3)c2)C(C)C)cc1Cl [Compound 104] | > 100 | > 0.1 | 0.004 | 0.003
22 | CC(C)(C)C(=Nc1ccc(Cl)c([N+](=O)[O-])c1)OCc1cccc(Oc2ccccc2)c1 [Compound 105] | > 100 | > 0.1 | 0.018 | 0.05
23 | CC(C)(C)C(=Nc1ccc(Br)c(Cl)c1)OCc1cccc(Oc2ccccc2)c1 [Compound 106] | > 100 | > 0.1 | 0.014 | 0.01
24 | Cc1ccc(N=C(OCc2cccc(Oc3ccccc3)c2)C(C)(C)C)cc1Cl [Compound 107] | > 100 | > 0.1 | 0.007 | 0.01
25 | Cc1cc(Cl)ccc1N=C(OCc1cccc(Oc2ccccc2)c1)C(C)(C)C [Compound 109] | > 100 | > 0.1 | 0.002 | > 0.05
26 | CC(C)(Cl)C(=Nc1ccc(Cl)c2ccccc12)OCc1cccc(Oc2ccccc2)c1 [Compound 111] | > 100 | > 0.1 | 0.1 | 0.003
27 | Cc1cc(N=C(OCc2cccc(Oc3ccccc3)c2)C(C)C)ccc1Br [Compound 127] | 58 | 0.04 | 0.01 | 0.001
28 | CC(C)C(=Nc1c(Br)cc(F)cc1Br)OCc1cccc(Oc2ccccc2)c1 [Compound 130] | > 100 | > 0.1 | 0.005 | 0.05
29 | Cc1cc(Br)ccc1N=C(OCc1cccc(Oc2ccccc2)c1)C(C)C [Compound 133] | 66 | 0.1 | 0.005 | 0.003
30 | CC(C)(C)C(=Nc1cccc(Br)c1)OCc1cccc(Oc2ccccc2)c1 [Compound 134] | > 100 | > 0.1 | 0.015 | > 0.05
31 | CC(C)C(=Nc1cccc(I)c1)OCc1cccc(Oc2ccccc2)c1 [Compound 136] | 9 | 0.08 | 0.004 | 0.002
32 | CSc1ccc(N=C(OCc2cccc(Oc3ccccc3)c2)C(Cl)Cl)cc1 [Compound 141] | 35 | > 0.1 | < 0.1 | 0.006
33 | Cc1cccc(N=C(OCc2cccc(Oc3ccccc3)c2)C(C)C)c1C [Compound 148] | 18 | 0.025 | 0.0025 | 0.0003
34 | COc1ccc(N=C(OCc2cccc(Oc3ccccc3)c2)C(C)C)c(C)c1 [Compound 149] | 17 | 0.05 | 0.007 | 0.001
35 | COc1ccc(C)cc1N=C(OCc1cccc(Oc2ccccc2)c1)C(C)C [Compound 150] | 89 | > 0.1 | 0.01 | 0.03
36 | CCCCc1ccc(N=C(OCc2cccc(Oc3ccccc3)c2)C(C)C)cc1 [Compound 152] | > 100 | > 0.1 | 0.009 | 0.01
37 | CCC(=Nc1ccc(CC)cc1)OCc1cccc(Oc2ccccc2)c1 [Compound 157] | 25 | > 0.1 | 0.009 | 0.002
38 | FC(F)(F)c1ccc(Oc2ccc(COC(=Nc3ccc(Cl)cc3)C(Cl)Cl)cc2)nc1 [Compound 453] | > 100 | – | 0.1 | > 0.05
